Converted amounts (≈) assume the structure as drawn. Peptide text beside a SMILES is read from it.

The subject of experiment [1] is HWY/slc hairless rats, full-thickness defect infected with Staphylococcus aureus. Description: Healing effect in rat infected-wound model. The format is in vivo. The procedure: Referring to Stenberg B D et al. (J Surg Res. 1991 January; 50(1):47-50.) and Hayward P et al. (Am J. Surg. 1992 March; 163(3):288-93.), a rat infected-wound model was produced as described below. […] hairless rats (male, 7-week old, obtained from Japan SLC, Inc.) were used. The day before full-thickness defects were created, the number of leukocytes was measured and cyclophosphamide was administered in tail vein (100 mg/kg). On the next day, the number of leukocytes was counted. Only the individuals in which the number of leukocytes was not more than 5000, were used. […] After administering the test substances, the wound sites were covered with a covering (PERME-ROLL, Nitto Medical Corporation) (day 0). […] Six days after the full-thickness defects were created (day 6), the area where the wounds had still not healed was measured to calculate the ratio of it relative to the area where the wounds were created, and the ratio was regarded as the wound area ratio on day 6.

For a further experiment, the system named is Crl:CD (SD) rats. Description: Ability to form granulation tissue in paper disc model. The settings on record: 10 μg/disc (250 μg/mL×40 μl/disc), subcutaneous paper disc, eight days later. The format is in vivo, rat. An excerpt:
Then, the ability to form granulation tissue of five polypeptides SR-1 to 5 in vivo was studied. […] The prepared paper discs were embedded subcutaneously into the back of Crl:CD (SD) rats (male, 9-week old, obtained from Charles River Laboratories Japan, Inc.). Eight days later, the paper discs were taken out, and the granulation tissues around the paper discs were collected to determine their wet weight.

Experiment [2] deals with human vascular endothelial cells and fibroblast cells (co-culture, Angiogenesis Kit KZ-1000). The settings on record: 10 μg/mL, length of lumina. The protocol:
Using AG30-5C as a positive control, the angiogenesis-inducing activity of SR-1 and SR-2 was measured. […] As a negative control, polypeptide-free group (Control) was used.
Cells were cultured at 37° C. under 5% CO2 in a 24-well plate using the special media to which the polypeptide was added. The medium was replaced with a medium containing the same polypeptide on day 4, day 7 and day 9 of culture. On day 11 from the beginning of the culture, the medium was removed and staining was performed using a kit for staining lumina (for CD31 antibody staining) according to the following procedure.
The primary antibody (mouse anti-human CD31 antibody) was 4000-fold diluted with a blocking solution (Dulbecco's phosphate buffered saline (PBS(−)) containing 1% BSA). To each well, 0.5 mL of this primary antibody solution was added, and the plate was incubated for 60 minutes at 37° C. After the completion of the incubation, each well was washed totally 3 times with 1 mL of the blocking solution.
Then, 0.5 mL of a secondary antibody solution (goat anti-mouse IgG/alkaline phosphatase conjugate) 500-fold diluted with the blocking solution was added to each well. The plate was incubated for 60 minutes at 37° C., and thereafter each well was washed 3 times with 1 mL of distilled water. During that period, 2 tablets of BCIP/NBT were dissolved into distilled water, and the obtained solution was filtered through a filter having a pore size of 0.2 μm to prepare a substrate solution. To each well, 0.5 mL of the prepared BCIP/NBT substrate solution was added, and the plate was incubated at 37° C. until the lumina turned to deep purple (typically for 5-10 minutes). After the completion of the incubation, each well was washed 3 times with 1 mL of distilled water. After washing, the washing solution was removed by aspiration, and the plate was left to stand and dry naturally. After drying, photographs of each well were taken under a microscope.
Each of the obtained images was quantified using an angiogenesis quantification software. Computer analysis was carried out on various parameters.

Experiment [3] relates to Escherichia coli ATCC 25922. Description: microbe, parasite or virus in culture. The format is cell-based. The settings on record: ATCC25922, 37° C., 20 hours. The procedure: (§1) ATP (%) of the antibacterial activity was measured in the same manner as mentioned above, and the “minimum inhibitory concentration (MIC)” was measured as follows. MIC is the lowest concentration of an agent that may inhibit the growth of a bacterium. MIC is used as a parameter for the efficacy of an antibacterial agent, for the strength of bacterial sensitivity, or the like. The bacteria can grow (proliferate) when the concentration is not higher than MIC, and cannot grow when the concentration is higher than MIC. […] (CLSI), but, in this Example, its measurement was carried out by a broth microdilution method in accordance with “M100-S17/M7-A7” (Performance Standards for Antimicrobial Susceptibility Testing; Seventeenth Informational Supplement, Vol. 27 No. 1) published by CLSI on January, 2007. That is, sensitivity test of agents was carried out using a microtiter plate or test tubes. The bacteria were cultured in the liquid media for 4 to 6 hours, and thereafter absorbances at A600 were measured. Bacterial suspensions were diluted with Mueller-Hinton broth (MHB) according to McFarland #0.5. Each strain was added so as to attain about 10^5 CFU/ml (final concentration). Each peptide was prepared to an optional concentration, and the solutions were serially diluted from the concentration. The polypeptide at each concentration stage was added to a microplate or test tubes, and the bacterial suspension was added thereto. […] The plate was incubated at 37° C. for 20 hours, the lowest concentration where bacterial growth was inhibited was regarded as the minimum inhibitory concentration. With respect to each strain, Escherichia coli: ATCC 25922 (Escherichia coli ATCC 25922), Pseudomonas aeruginosa: ATCC 27853 (Pseudomonas aeruginosa ATCC 27853), Staphylococcus aureus: ATCC29213 (Staphylococcus aureus ATCC29213), Klebsiella pneumoniae: JCM 1662 (Klebsiella pneumoniae JCM 1662), enterobacteria (1): JCM 1232 (Enterobacter cloacae JCM 1232), enterobacteria (2): JCM 1235 (Enterobacter aerogenes JCM 1235), and Staphylococcus epidermidis: JCM 2414 (Staphylococcus epidermidis JCM 2414), were used. […] As the concentrations of the agents in ATP assay, the concentrations as described in the Tables were used.

Experiment [4] has as its system Pseudomonas aeruginosa ATCC 27853. Description: microbe, parasite or virus in culture. The format is cell-based. The settings on record: 37° C., 20 hours; for MIC: Pseudomonas aeruginosa, ATCC27853. The protocol: as §1

For the molecule `CC[C@H](C)[C@H](NC(=O)[C@H](CC(C)C)NC(=O)[C@H](CCCCN)NC(=O)[C@H](CC(C)C)NC(=O)[C@@H](N)CCSC)C(=O)N[C@@H](Cc1ccccc1)C(=O)N[C@@H](CC(C)C)C(=O)N[C@@H](Cc1c[nH]cn1)C(=O)N[C@@H](CCCNC(=N)N)C(=O)N[C@@H](CC(C)C)C(=O)N[C@@H](CCCCN)C(=O)N[C@@H](CCCNC(=N)N)C(=O)N[C@@H](CCSC)C(=O)N[C@@H](CCCNC(=N)N)C(=O)N[C@@H](CCCCN)C(=O)N[C@@H](CCCNC(=N)N)C(=O)N[C@@H](CC(C)C)C(=O)N[C@@H](CCCCN)C(=O)N[C@@H](CCCNC(=N)N)C(=O)N[C@@H](CCCCN)C(=O)O` [SR-1] (H-MLKLIFLHRLKRMRKRLKRK-OH; N-terminus assumed), in experiment [1] (SR-1 50 μg, bFGF formulation 3 μg/25 μL, once a day days 0-3), the “Wound area ratio on day 6” value amounted to 80.2. The “healing effect on wounds associated with infection” value in experiment [1] (compared with the bFGF formulation) is “higher healing effect compared with the bFGF formulation”. In the experiment with Crl:CD (SD) rats, the granulation tissue weight entry is on record as “largest increase in the granulation tissue weight”. In experiment [2], the “angiogenesis-inducing activity compared with AG30-5C” value is given as “higher than AG30-5C”. On to `C[C@@H](O)[C@H]1C(=O)N2C(C(=O)O)=C(S[C@@H]3CN[C@H](C(=O)N(C)C)C3)[C@H](C)[C@H]12` [MEPM, meropenem, reference compound], for which the MIC is 0.008 to 0.06 µg/mL (≈ 0.0209 to 0.156 µM) in experiment [3] and 0.25 to 1 µg/mL (≈ 0.652 to 2.61 µM) in experiment [4].

Consider `CSCC[C@H](NC(=O)[C@H](CCCNC(=N)N)NC(=O)[C@H](CCCCN)NC(=O)[C@H](CC(C)C)NC(=O)[C@H](CCCNC(=N)N)NC(=O)[C@H](Cc1c[nH]cn1)NC(=O)[C@H](CC(C)C)NC(=O)[C@H](Cc1ccccc1)NC(=O)[C@H](CCCNC(=N)N)NC(=O)[C@H](CC(C)C)NC(=O)[C@@H](N)CCC(=O)O)C(=O)N[C@@H](CCCNC(=N)N)C(=O)N[C@@H](CCCCN)C(=O)N[C@@H](CCCNC(=N)N)C(=O)N[C@@H](CC(C)C)C(=O)N[C@@H](CCCCN)C(=O)N[C@@H](CCCNC(=N)N)C(=O)N[C@@H](CCCCN)C(=O)N[C@@H](CC(C)C)C(=O)N[C@@H](CCCNC(=N)N)C(N)=O` [SR-3] (H-ELRFLHRLKRMRKRLKRKLR-NH2; N-terminus assumed), for which, in the experiment with Crl:CD (SD) rats, the granulation tissue weight entry was “largest increase in the granulation tissue weight”. For the molecule `CC(C)C[C@H](NC(=O)[C@H](CCCCN)NC(=O)[C@H](CCCNC(=N)N)NC(=O)[C@H](CCCCN)NC(=O)[C@H](CC(C)C)NC(=O)[C@H](CCCNC(=N)N)NC(=O)[C@H](CCCCN)NC(=O)[C@H](CCCNC(=N)N)NC(=O)[C@H](CC(C)C)NC(=O)[C@H](CCCNC(=N)N)NC(=O)[C@H](CCCNC(=N)N)NC(=O)[C@H](CCCCN)NC(=O)[C@H](CC(C)C)NC(=O)[C@H](CCCNC(=N)N)NC(=O)[C@H](Cc1c[nH]cn1)NC(=O)[C@H](CC(C)C)NC(=O)[C@H](Cc1ccccc1)NC(=O)[C@H](CCCNC(=N)N)NC(=O)[C@H](CC(C)C)NC(=O)[C@@H](N)CCC(=O)O)C(=O)N[C@@H](CCCNC(=N)N)C(N)=O` [SR-2] (H-ELRFLHRLKRRLRKRLKRKLR-NH2; N-terminus assumed), the “angiogenesis-inducing activity compared with AG30-5C” value in experiment [2] was “higher than AG30-5C”.

On to `CSCC[C@H](NC(=O)[C@H](CCCNC(=N)N)NC(=O)[C@@H](N)CCCCN)C(=O)N[C@@H](CCCNC(=N)N)C(=O)N[C@@H](CCCCN)C(=O)N[C@@H](CCCNC(=N)N)C(=O)N[C@@H](CC(C)C)C(=O)N[C@@H](CCCCN)C(=O)N[C@@H](CCCNC(=N)N)C(=O)N[C@@H](CCCCN)C(=O)N[C@@H](CC(C)C)C(=O)N[C@@H](CCCNC(=N)N)C(=O)N[C@@H](CC(C)C)C(=O)N[C@@H](Cc1c[nH]c2ccccc12)C(=O)N[C@@H](Cc1c[nH]cn1)C(=O)N[C@@H](CCCNC(=N)N)C(=O)N[C@@H](CCCCN)C(=O)N[C@@H](CCCNC(=N)N)C(=O)N[C@@H](Cc1ccc(O)cc1)C(=O)N[C@@H](CCCCN)C(=O)O` [SR-5] (H-KRMRKRLKRKLRLWHRKRYK-OH; N-terminus assumed), for which, in experiment [4], the “MIC Pseudomonas aeruginosa” value is on record as 128≦ μg/mL. Take `NC[C@H]1O[C@H](O[C@H]2[C@H](O)[C@@H](O[C@H]3O[C@H](CO)[C@@H](O)[C@H](N)[C@H]3O)[C@H](N)C[C@@H]2N)[C@H](N)C[C@@H]1O` [TOB, tobramycin, reference compound]: the MIC in experiment [3] and in experiment [4] was 0.25 to 1 µg/mL (≈ 0.535 to 2.14 µM) throughout.

(Values after patent publication US9376470B2, “Polypeptide having angiogenesis-inducing activity and antibacterial activity, and use thereof for medical purposes” (FunPep Inc., priority 2008, dated 2016).)
